Data on six compounds can be found in patent US8003660B2, “Modulators of muscarinic receptors” (Vertex Pharmaceuticals Incorporated, priority 2006, dated 2011).

Common to all, as to assay type: cell-based
In one assay the target is T1, M1 muscarinic receptor (Homo sapiens, UniProt P11229).
T1 construct: expressed in transfected cells; host or cells: CHO (M1-CHO)
T1 sequence (P11229 1-460): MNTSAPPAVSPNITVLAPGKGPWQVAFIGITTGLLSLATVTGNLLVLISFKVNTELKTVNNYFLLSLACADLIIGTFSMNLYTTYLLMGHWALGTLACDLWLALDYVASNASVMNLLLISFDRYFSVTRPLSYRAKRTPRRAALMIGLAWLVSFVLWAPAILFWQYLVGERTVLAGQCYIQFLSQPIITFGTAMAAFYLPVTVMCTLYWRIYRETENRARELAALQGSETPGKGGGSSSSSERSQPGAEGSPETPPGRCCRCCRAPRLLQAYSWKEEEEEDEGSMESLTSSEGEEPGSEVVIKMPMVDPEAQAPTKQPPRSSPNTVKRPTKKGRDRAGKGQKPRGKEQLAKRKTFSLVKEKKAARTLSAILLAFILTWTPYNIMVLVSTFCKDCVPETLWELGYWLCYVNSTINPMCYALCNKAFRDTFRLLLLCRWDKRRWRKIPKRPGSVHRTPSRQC
Kind of assay: Functional mobilization of intracellular calcium (FLIPR) in CHO cells expressing M1. The following applies: for M1 Activity: CHO cells expressing M1, FLIPR calcium assay; for Emax: CHO, 100% efficacy = maximum response obtained with the Carbachol control. The essentials: (§1)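 Calcium flux is read on FLIPR over 60 sec at 488/540 nm in muscarinic-receptor CHO lines. Antagonist mode adds carbachol at EC80 after 15 min compound preincubation or with simultaneous co-application. Agonist mode adds compound alone. Cells carry Fluo-3 or Calcium 3 dye in probenecid-containing pH 7.4 buffer, 0.5% DMSO final.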

Another assay deals with T2, M2 muscarinic receptor (Homo sapiens, UniProt P08172).
T2 construct: expressed in transfected cells; host or cells: CHO (M2-CHO)
T2 sequence (P08172 1-466): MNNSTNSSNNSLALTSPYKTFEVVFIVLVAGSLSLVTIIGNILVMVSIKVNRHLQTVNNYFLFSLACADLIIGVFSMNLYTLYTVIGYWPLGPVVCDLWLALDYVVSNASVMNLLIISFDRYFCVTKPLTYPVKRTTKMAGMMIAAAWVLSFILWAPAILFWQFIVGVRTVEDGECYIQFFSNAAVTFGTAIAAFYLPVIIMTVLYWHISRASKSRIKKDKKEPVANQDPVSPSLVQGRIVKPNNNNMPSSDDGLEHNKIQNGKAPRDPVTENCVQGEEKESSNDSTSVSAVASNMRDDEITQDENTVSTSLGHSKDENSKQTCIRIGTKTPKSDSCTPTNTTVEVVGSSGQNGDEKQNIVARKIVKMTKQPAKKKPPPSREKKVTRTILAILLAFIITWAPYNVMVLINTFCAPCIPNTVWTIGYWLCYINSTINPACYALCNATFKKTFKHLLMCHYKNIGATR
Briefly: Functional mobilization of intracellular calcium (FLIPR) in CHO cells expressing M2. The note with it: for M2 Activity: CHO cells expressing M2, FLIPR calcium assay; for Emax: CHO, 100% efficacy = maximum response obtained with the Carbachol control. An outline of the steps:
as §1

The target in the next assay is T3, M4 muscarinic receptor (Homo sapiens, UniProt P08173).
T3 construct: expressed in transfected cells; host or cells: CHO (M4-CHO)
T3 sequence (P08173 1-479): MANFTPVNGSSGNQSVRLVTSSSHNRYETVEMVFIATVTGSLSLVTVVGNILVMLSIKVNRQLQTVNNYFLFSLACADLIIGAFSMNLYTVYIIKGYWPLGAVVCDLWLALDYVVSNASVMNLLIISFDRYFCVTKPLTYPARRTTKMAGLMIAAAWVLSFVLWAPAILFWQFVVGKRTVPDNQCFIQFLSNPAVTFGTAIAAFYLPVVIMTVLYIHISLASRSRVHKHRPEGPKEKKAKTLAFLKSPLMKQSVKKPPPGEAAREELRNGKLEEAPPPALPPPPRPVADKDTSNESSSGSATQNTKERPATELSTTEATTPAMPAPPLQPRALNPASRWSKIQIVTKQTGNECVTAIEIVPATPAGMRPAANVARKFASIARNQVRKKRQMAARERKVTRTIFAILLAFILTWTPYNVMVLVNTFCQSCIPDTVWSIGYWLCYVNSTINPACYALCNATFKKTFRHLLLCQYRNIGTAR
Kind of assay: Functional mobilization of intracellular calcium (FLIPR) in CHO cells expressing M4. The following applies: for M4 Activity: CHO cells expressing M4, FLIPR calcium assay; for Emax: CHO, 100% efficacy = maximum response obtained with the Carbachol control. An outline of the steps:
as §1

The next assay concerns the target T4, M3 muscarinic receptor (Homo sapiens, UniProt P20309).
T4 construct: expressed in transfected cells; host or cells: CHO (M3-CHO)
Briefly: Functional mobilization of intracellular calcium (FLIPR) in CHO cells expressing M3. The note with it: for M3 Activity: CHO cells expressing M3, FLIPR calcium assay; for Emax: CHO, 100% efficacy = maximum response obtained with the Carbachol control. An outline of the steps: as §1

T4 sequence (P20309 whole entry): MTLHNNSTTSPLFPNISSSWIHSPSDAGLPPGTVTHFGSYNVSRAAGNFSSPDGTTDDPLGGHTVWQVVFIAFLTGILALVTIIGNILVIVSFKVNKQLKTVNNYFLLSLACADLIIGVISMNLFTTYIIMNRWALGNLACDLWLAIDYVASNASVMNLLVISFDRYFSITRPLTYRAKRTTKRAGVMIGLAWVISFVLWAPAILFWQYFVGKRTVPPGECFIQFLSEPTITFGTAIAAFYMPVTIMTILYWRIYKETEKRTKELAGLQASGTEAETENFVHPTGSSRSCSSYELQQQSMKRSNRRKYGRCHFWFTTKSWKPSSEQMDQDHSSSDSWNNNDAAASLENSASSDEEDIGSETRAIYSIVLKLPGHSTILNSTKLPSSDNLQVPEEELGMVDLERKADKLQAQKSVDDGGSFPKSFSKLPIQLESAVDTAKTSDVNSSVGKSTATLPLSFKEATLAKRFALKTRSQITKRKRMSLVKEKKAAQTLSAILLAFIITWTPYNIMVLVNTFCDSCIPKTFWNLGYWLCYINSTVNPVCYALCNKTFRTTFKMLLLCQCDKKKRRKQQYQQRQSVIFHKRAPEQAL

In the case of `CC(C)(C)OC(=O)N1CCC2(CC1)C[C@H](NC(=O)C1CCCC1)c1ccccc12` [compound 295], at M1 muscarinic receptor, the “M1 Activity” value was “+ (activity was measured to be greater than 5.0 μM)” and the Emax is under 25%. Moreover, on M2 muscarinic receptor, the “M2 Activity” value was “+ (activity was measured to be greater than 5.0 μM)” and the Emax was under 25%. Also, on M4 muscarinic receptor, the “M4 Activity” value is reported as “+ (activity was measured to be greater than 5.0 μM)” and the Emax was under 25%. Also, on M3 muscarinic receptor, the “M3 Activity” value was “+ (activity was measured to be greater than 5.0 μM)” and the Emax was under 25%.

Turning to `CN(C)C(=O)N[C@H]1CC2(CCN(CCC(C)(C)C)CC2)c2ccccc21` [compound 297], on M1 muscarinic receptor, the “M1 Activity” value is recorded as “+ (activity was measured to be greater than 5.0 μM)” and the Emax is under 25%. Also, at M2 muscarinic receptor, the “M2 Activity” value is listed as “+ (activity was measured to be greater than 5.0 μM)” and the maximal response (Emax) was under 25%. In addition, at M4 muscarinic receptor, the “M4 Activity” value is “+ (activity was measured to be greater than 5.0 μM)” and the Emax is under 25%. At M3 muscarinic receptor, the “M3 Activity” value is given as “+ (activity was measured to be greater than 5.0 μM)” and the Emax is under 25%.

As to `CN(C)C(=O)N[C@H]1CC2(CCN(C(=O)OC(C)(C)C)CC2)c2ccccc21` [compound 298], on M1 muscarinic receptor, the “M1 Activity” value is “+ (activity was measured to be greater than 5.0 μM)” and the Emax was under 25%. Besides, on M2 muscarinic receptor, the “M2 Activity” value is “+ (activity was measured to be greater than 5.0 μM)” and the Emax was under 25%. At M4 muscarinic receptor, the “M4 Activity” value is reported as “+ (activity was measured to be greater than 5.0 μM)” and the Emax is under 25%. For the same compound, on M3 muscarinic receptor, the “M3 Activity” value is listed as “+ (activity was measured to be greater than 5.0 μM)” and the Emax is under 25%.

In the case of `CC(C)CCN1CCC2(CC1)C[C@H](NC(=O)C1CCCC1)c1ccccc12` [compound 299], at M1 muscarinic receptor, the “M1 Activity” value is reported as “+ (activity was measured to be greater than 5.0 μM)” and the Emax was under 25%. On M2 muscarinic receptor, the “M2 Activity” value is given as “+ (activity was measured to be greater than 5.0 μM)” and the maximum response (Emax) is under 25%. Further, on M4 muscarinic receptor, the “M4 Activity” value is “+ (activity was measured to be greater than 5.0 μM)” and the Emax was under 25%. For the same compound, at M3 muscarinic receptor, the “M3 Activity” value is “+ (activity was measured to be greater than 5.0 μM)” and the Emax is under 25%.

Consider `CC(C)(C)CCN1CCC2(CC1)C[C@H](NC(=O)C1CC1)c1ccccc12` [compound 300], for which, at M1 muscarinic receptor, the “M1 Activity” value is listed as “+++ (activity was measured to be less than 2.0 μM)” and the Emax was 25 to 100%. Besides, on M2 muscarinic receptor, the “M2 Activity” value is listed as “+ (activity was measured to be greater than 5.0 μM)” and the Emax is under 25%. At M4 muscarinic receptor, the “M4 Activity” value is on record as “+++ (activity was measured to be less than 2.0 μM)” and the Emax was under 25%. Moreover, on M3 muscarinic receptor, the “M3 Activity” value is listed as “+ (activity was measured to be greater than 5.0 μM)” and the Emax is under 25%.

Consider `C=CCCCN1CCC2(CC1)C[C@H](NC(=O)N1CCCC1)c1ccccc12` [compound 301], for which, at M1 muscarinic receptor, the “M1 Activity” value is on record as “+ (activity was measured to be greater than 5.0 μM)” and the Emax is under 25%. Also, on M2 muscarinic receptor, the “M2 Activity” value is reported as “+ (activity was measured to be greater than 5.0 μM)” and the Emax was under 25%. For the same compound, at M4 muscarinic receptor, the “M4 Activity” value is “+ (activity was measured to be greater than 5.0 μM)” and the Emax is under 25%. Further, at M3 muscarinic receptor, the “M3 Activity” value was “+ (activity was measured to be greater than 5.0 μM)” and the Emax is under 25%.
